According to patent publication US11851642B2, “Test device” (HITACHI HIGH-TECH CORPORATION, priority 2015, dated 2023):
Where “and” joins values, the source holds several entries; their conditions need not be identical. Identical values can stand only once.

Key:
Type in all cases: cell-based
[1] = system: E coli (ATCC25922); experiment: antimicrobial susceptibility testing by microscopic observation (binarized images); conditions: ampicillin 2 μg/mL in culture fluid; 180 minutes from the start of culture (FIG. 5(b))
Method: In addition, when an examination is performed by using the bacteriological testing instrument 1, culture is performed by mixing a bacterial suspension prepared from a specimen with a culture fluid in the culture plate (for example, a culture plate which has 96 wells in total is used) 18. In order to perform the antimicrobial susceptibility testing, antimicrobial agents different from each other are set so as to be respectively contained in the culture fluids in each of the wells in particular concentrations. An order of the culturing is as follows. First, the bacterial suspension is introduced into the culture plate 18. Then, the bacterial suspension is in a state of being mixed with the culture fluid which is included in each of the wells, and the temperature controller 16 is set to a temperature of approximately 35° C. […] Then, in the bacteriological testing instrument 1, while performing the incubation, the bacteria included in each of the wells can be monitored through the microscopic observation optical system. […] In addition, similar to the bacteriological testing instrument in the related art, the turbidity of each of the wells may be measured through the turbidity measurement optical system while incubating the culture plate 18. The measured result may be compared with the monitored result of the microscopic observation optical system. […]

[2] = system: E coli separated from a patient A; experiment: antimicrobial susceptibility testing by microscopic observation, areas of the bacteria
Method: (§1) In addition, when an examination is performed by using the bacteriological testing instrument 1, culture is performed by mixing a bacterial suspension prepared from a specimen with a culture fluid in the culture plate (for example, a culture plate which has 96 wells in total is used) 18. In order to perform the antimicrobial susceptibility testing, antimicrobial agents different from each other are set so as to be respectively contained in the culture fluids in each of the wells in particular concentrations. An order of the culturing is as follows. First, the bacterial suspension is introduced into the culture plate 18. Then, the bacterial suspension is in a state of being mixed with the culture fluid which is included in each of the wells, and the temperature controller 16 is set to a temperature of approximately 35° C. Furthermore, culture is performed by performing incubation such that the temperature of each of the wells in the culture plate 18 reaches the set temperature. Then, in the bacteriological testing instrument 1, while performing the incubation, the bacteria included in each of the wells can be monitored through the microscopic observation optical system. The microscopic observation may be performed for a set period of time from the start of the incubation till the end thereof by continuously monitoring the state of bacterial proliferation. In addition, the monitoring may be performed at the set time after setting appropriate time, and the monitoring result can be compared with the monitoring result when the incubation is started. In addition, similar to the bacteriological testing instrument in the related art, the turbidity of each of the wells may be measured through the turbidity measurement optical system while incubating the culture plate 18. The measured result may be compared with the monitored result of the microscopic observation optical system.
(§2) The processor determines whether the bacteria proliferate or the proliferation is interrupted under the corresponding culture condition, based on the microscopic image to which the above-described necessary treatments are performed. The determination whether or not the proliferation is performed, is performed by comparing with the information obtained based on the images at different times in the same container. More specifically, based on the image after the treatment illustrated in FIGS. 4 to 6, for example, the areas of the bacteria are calculated, and it is determined whether or not the proliferation is performed by creating the graph as illustrated in FIG. 12.
(§3) The processor combines the information on whether or not the proliferation is performed under the culture condition with a combination of a certain concentration of the antimicrobial agent, and determines the minimum concentration of the antimicrobial agent (MIC, minimum inhibitory concentration) which becomes interruption of proliferation. Here, the MIC determination is performed with respect to all of the wells provided on the culture plate 21. For example, there are 96 wells on the culture plate 21, and various types of antimicrobial agents having different concentrations (for example, 0 μg/mL, 0.5 μg/mL, 1 μg/mL, 2.0 μg/mL, 4.0 μg/mL, 8.0 μg/mL, 16.0 μg/mL, . . . ) enter the wells. Therefore, the minimum concentration (MIC) of the antimicrobial agent which becomes interruption of proliferation can be ascertained.
(§4) The processor further determines whether the bacteria of the examination target is sensitive (S), resistant (R), and intermediate (I) with respect to the corresponding antimicrobial agent by comparing with a break point (a break point of Clinical and Laboratory Standards Institute (CLSI), a break point of Japanese Society of Chemotherapy, or a break point of EUCAST) which is stored as reference data. […]

[3] = system: E coli separated from a patient B; experiment: as above
Method: as §1, §2, §3, §4

[4] = system: Staphylococcus aureus separated from the patient B; experiment: as above; conditions: for antimicrobial susceptibility determination (comparison with the break points): FIG. 20(b)
Source text: as §1, with “In” for “In addition, when an examination is performed by using the bacteriological testing instrument 1, culture is performed by mixing a bacterial suspension prepared from a specimen with a culture fluid in the culture plate (for example, a culture plate which has 96 wells in total is used) 18. In”
as §2
as §3, with “wells.” for “wells. Therefore, the minimum concentration (MIC) of the antimicrobial agent which becomes interruption of proliferation can be ascertained.”

[5] = system: Staphylococcus aureus separated from the patient A; experiment: as above; conditions: for antimicrobial susceptibility determination (comparison with the break points): FIG. 20(a)
Source text: as §1, with “In” for “In addition, when an examination is performed by using the bacteriological testing instrument 1, culture is performed by mixing a bacterial suspension prepared from a specimen with a culture fluid in the culture plate (for example, a culture plate which has 96 wells in total is used) 18. In”
as §2
as §3, with “wells.” for “wells. Therefore, the minimum concentration (MIC) of the antimicrobial agent which becomes interruption of proliferation can be ascertained.”

[6] = system: Enterococcus faecalis (ATCC29212); experiment: as above; design: key: Waiting is determined, and “W” is displayed; Growth is determined, and “G” is displayed; Inhibit is determined, and “I” is displayed
Method: In addition, when an examination is performed by using the bacteriological testing instrument 1, culture is performed by mixing a bacterial suspension prepared from a specimen with a culture fluid in the culture plate (for example, a culture plate which has 96 wells in total is used) 18. In order to perform the antimicrobial susceptibility testing, antimicrobial agents different from each other are set so as to be respectively contained in the culture fluids in each of the wells in particular concentrations. An order of the culturing is as follows. First, the bacterial suspension is introduced into the culture plate 18. Then, the bacterial suspension is in a state of being mixed with the culture fluid which is included in each of the wells, and the temperature controller 16 is set to a temperature of approximately 35° C. Furthermore, culture is performed by performing incubation such that the temperature of each of the wells in the culture plate 18 reaches the set temperature. Then, in the bacteriological testing instrument 1, while performing the incubation, the bacteria included in each of the wells can be monitored through the microscopic observation optical system. […] In addition, similar to the bacteriological testing instrument in the related art, the turbidity of each of the wells may be measured through the turbidity measurement optical system while incubating the culture plate 18. The measured result may be compared with the monitored result of the microscopic observation optical system.
The processor determines whether the bacteria proliferate or the proliferation is interrupted under the corresponding culture condition, based on the microscopic image to which the above-described necessary treatments are performed. […] More specifically, based on the image after the treatment illustrated in FIGS. 4 to 6, for example, the areas of the bacteria are calculated, and it is determined whether or not the proliferation is performed by creating the graph as illustrated in FIG. 12. […]

[7] = system: Pseudomonas aeruginosa; experiment: antimicrobial susceptibility testing by microscopic observation, circularity of the bacteria
Method: as §1
FIG. 22 is a view (graph) illustrating a result obtained by antimicrobial susceptibility testing with respect to meropenem of Pseudomonas aeruginosa. The graph acquires the circularity of the Pseudomonas aeruginosa in the image measured through the microscopic observation, and illustrates the time-dependent change thereof. The plurality of Pseudomonas aeruginosa are observed in one image, but the circularity of each of the Pseudomonas aeruginosa is acquired, and the value obtained by calculating an average value of the bacteria in the image is plotted. In addition, the circularity is a value calculated by 4π×(area)/(perimeter length)^2. When the bacteria have a completely circular shape, 4π×πr^2/(2πr) ^2=1 is satisfied, and when the bacteria is deviated from a completely circular shape, the perimeter length increases, and thus, the circularity value decreases.
In the graph, in a case where there is no the antimicrobial agent to be plotted by a “rhomboidal (diamond) shape”, the circularity of the Pseudomonas aeruginosa was hardly changed from the start of culture. […] In addition, when the concentration of meropenem of which the decrease in circularity is stopped is 0.5 μg/mL or greater, it is determined that the Pseudomonas aeruginosa becomes extinct. In a case where the bacteria are not extinct, the shape of the bacteria changes. […] The exemplary embodiment is an example in which the time-dependent change of the circularity of the bacteria is plotted instead of plotting the time-dependent change of the areas of the bacteria. However, in this manner, by plotting the time-dependent change of the feature values that become an index for indicating a degree of proliferation or growth of the bacteria in addition to the bacterial numbers or the areas of the bacteria, not only the minimum inhibitory concentration (MIC) of the bacteria but also the minimum bactericidal concentration (MBC) can be determined.

CC1(C)S[C@@H]2[C@H](NC(=O)[C@H](N)c3ccccc3)C(=O)N2[C@H]1C(=O)O [ampicillin]
state of the bacteria in the microscopic observation image [1]: elongated | sensitivity determination (comparison with the break points) ([2]; FIG. 17(a)): durability | proliferation determination result (MIC determination result) ([2]; all ampicillin conditions (FIG. 16(a))): determined to proliferate | time-dependent change of the areas of the bacteria (standardized by the areas at start of culture) ([2]; ampicillin 512 μg/mL, compared to no antimicrobial agent (FIG. 15(a))): slightly increases | concentration at which the proliferation is interrupted (MIC determination result) ([3]; after 180 minutes from the start of culture (FIG. 16(b))): ≥ 8 µg/mL | time-dependent change of the areas of the bacteria (standardized by the areas at start of culture) ([3]; ampicillin 4 μg/mL (FIG. 15(b))): increase tends to be stopped | time-dependent change of the areas of the bacteria (standardized by the areas at start of culture) ([3]; ampicillin 8 μg/mL or greater (FIG. 15(b))): area tends to decrease | antimicrobial susceptibility determination (comparison with the break points) [4]: Intermediate | antimicrobial susceptibility determination (comparison with the break points) [5]: resistance

C[C@H]1COc2c(N3CCN(C)CC3)c(F)cc3c(=O)c(C(=O)O)cn1c23 [levofloxacin]
proliferation determination result ([6]; levofloxacin 0.5 μg/mL, after 120 minutes (FIG. 13)): G | proliferation determination result ([6]; levofloxacin 1.0 μg/mL, after 150 minutes (FIG. 13)): I | proliferation determination result ([6]; levofloxacin 2.0 μg/mL, after 150 minutes (FIG. 13)): I

C[C@@H](O)[C@H]1C(=O)N2C(C(=O)O)=C(S[C@@H]3CN[C@H](C(=O)N(C)C)C3)[C@H](C)[C@H]12 [meropenem]
concentration at which the circularity continues to decrease: bacteria elongated but not become extinct yet ([7]; FIG. 22): 0.125 µg/mL and 0.25 µg/mL | concentration at which the decrease in circularity is stopped: bacteria become extinct (can be estimated as MBC) ([7]; FIG. 22): ≥ 0.5 µg/mL | time from the start of culture after which the circularity starts to decrease ([7]; meropenem 0.25 μg/mL, bacteria elongated (FIG. 22)): 90 min | time-dependent change of the circularity ([7]; meropenem 0.5 μg/mL (FIG. 22)): slightly decreases | time-dependent change of the circularity ([7]; meropenem 1.0 μg/mL (FIG. 22)): slightly decreases | time-dependent change of the circularity ([7]; meropenem 2.0 μg/mL (FIG. 22)): slightly decreases

CN[C@H](CC(C)C)C(=O)N[C@H]1C(=O)N[C@@H](CC(N)=O)C(=O)N[C@H]2C(=O)N[C@H]3C(=O)N[C@H](C(=O)N[C@H](C(=O)O)c4cc(O)cc(O)c4-c4cc3ccc4O)[C@H](O)c3ccc(c(Cl)c3)Oc3cc2cc(c3O[C@@H]2O[C@H](CO)[C@@H](O)[C@H](O)[C@H]2O[C@H]2C[C@](C)(N)[C@H](O)[C@H](C)O2)Oc2ccc(cc2Cl)[C@H]1O [vancomycin]
antimicrobial susceptibility determination (comparison with the break points) [4]: Intermediate | concentration at which the proliferation is performed ([4]; images within 300 minutes from the start of culture (FIG. 18, FIG. 19(b))): ≤ 0.5 µg/mL | antimicrobial susceptibility determination (comparison with the break points) [5]: sensitivity | concentration at which the proliferation is performed ([5]; images within 300 minutes from the start of culture (FIG. 18, FIG. 19(a))): 0.25 µg/mL
